This passage reports Ki results from patent US7625889B2, “Substituted bis aryl and heteroaryl compounds as selective 5HT2A antagonists” (Aventis Pharmaceuticals Inc., priority 2005, dated 2009).

The structures appear in SMILES notation.

For the experiment, the target named is T1, human 5HT2A receptor (Homo sapiens, UniProt P28223).
T1 construct: expressed in transfected cells
T1 sequence (P28223 whole entry): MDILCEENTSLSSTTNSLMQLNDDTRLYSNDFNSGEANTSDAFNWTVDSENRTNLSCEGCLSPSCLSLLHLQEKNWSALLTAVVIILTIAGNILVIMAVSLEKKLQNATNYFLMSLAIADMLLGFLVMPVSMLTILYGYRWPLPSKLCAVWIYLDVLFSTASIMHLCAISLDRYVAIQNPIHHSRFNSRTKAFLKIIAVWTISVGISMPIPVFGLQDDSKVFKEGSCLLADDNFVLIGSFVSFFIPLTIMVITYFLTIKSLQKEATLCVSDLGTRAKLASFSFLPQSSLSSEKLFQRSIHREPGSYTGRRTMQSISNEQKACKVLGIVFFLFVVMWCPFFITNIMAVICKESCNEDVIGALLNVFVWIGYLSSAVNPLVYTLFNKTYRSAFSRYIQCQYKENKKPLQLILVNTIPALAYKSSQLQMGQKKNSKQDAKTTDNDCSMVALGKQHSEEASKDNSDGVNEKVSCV
Kind of experiment: Receptor Binding Assay, 5HT2A ([3H]N-methyl spiperone). To be noted: BHK cells expressing human 5HT2A receptor, 2.5 nM [3H]N-methyl spiperone, 37° C. As for the experimental part: Cell Culture: BHK cells stably expressing the human 5HT2A receptor were maintained in Dulbecco's Modified Eagle's Medium supplemented with […] Geneticin, 1% Sodium Pyruvate, 1% Pen-Strep and 10% Fetal Calf Serum, and treated with 5 mM sodium butyrate for 24 h to increase receptor expression before harvesting. Cells were harvested by mechanical scraping, washed with Phosphate Buffered Saline, and stored at −80° C. in 10% DMSO in 1 mg/mil aliquots until used. Protein determination was made according to Lowry.
Receptor Binding Assays: The 5HT2A and D2L assays were conducted at 37° C. in a Tris buffer containing salts (50 mM Tris Buffer, pH 7.7; 120 mM NaCl; 5 mM KCl; 2 mM CaCl2; 1 mM MgCl2). Cell membranes (previously prepared and frozen) were rapidly thawed. Membranes were diluted to an appropriate concentration (to produce 100 μg protein/assay point for 5HT2A, and 58 μg protein/assay point for D2L) in Tris buffer and homogenized. Assays were conducted on 96-well plates, using 2.5 and 1 nM [^3H]N-methyl spiperone as radioligand for 5HT2A and D2L assays, respectively. Plates were incubated at 37° C. in a shaking water bath for 30 and 60 min, for 5HT2A and D2L, respectively. Nonspecific binding was defined using 100 μM methylsergide and eticlopride, for 5HT2A and D2L, respectively.
Assays were terminated by rapid filtration through Millipore MAFB or MAFC (5HT2C) filter plates (presoaked in 50 mM Tris HCl, pH 7.7, with 0.1% Brij) using a Millipore Cell Harvester. The filter plates were then washed with ice-cold 50 mM Tris buffer, pH 7.7, and allowed to dry overnight. 50 μl of Microscint scintillation cocktail were added and the plates were counted in a Packard Topcount scintillation counter.
IC50 and Ki calculations were performed using nonlinear regression one-site competition analysis (GraphPad, Prism), with top and bottom limits held constant at 0% and 100% inhibition, respectively. The percent inhibition at each drug concentration was the average of duplicate determinations. Except where indicated, each determination was performed 2 to 5 times.
Usually Ki stands for the dissociation constant of the complex between target and ligand, obtained from inhibition or displacement. A higher Ki goes with weaker binding. Compound `CN(C)CCN(Cc1ccccc1)Cc1cccc(-c2ccc3[nH]ccc3c2)c1` [Example 1, N-Benzyl-N-[3-(1H-indol-5-yl)-benzyl]-N′,N′-dimethyl-ethane-1,2-diamine] came in with an inhibitory constant (Ki) of 10.8 nM.
Under `CN(C)CCN(Cc1ccccc1)Cc1cccc(-c2ccc3[nH]c(=O)sc3c2)c1` [Example 2] stands 2.4 nM.
The compound `CN(C)CCN(Cc1ccccc1)Cc1cccc(-c2ccc3[nH]c(=O)n(C)c(=O)c3c2)c1` [Example 4] returned a Ki of 33.5 nM.
Take `CN(C)CCN(Cc1ccccc1)Cc1cccc(-c2ccc3[nH]c(=O)[nH]c3c2)c1` [Example 5]: the Ki is 218 nM.
In turn, `CN(C)CCN(Cc1ccccc1)Cc1cccc(-c2ccc3[nH]ncc3c2)c1` [Example 6] had an inhibition constant Ki of 2.7 nM.
As for `CN(C)CCN(Cc1ccccc1)Cc1cccc(-c2cnc3c(c2)OCC(=O)N3)c1` [Example 7], the Ki stood at 210 nM.
Under `CN1CCN(Cc2cccc(-c3ccc4[nH]c(=O)oc4c3)c2)CC1` [Example 8] stands 35.4 nM; under `CN1CCN(Cc2cccc(-c3ccc4[nH]nnc4c3)c2)CC1` [Example 9], 227 nM.
With `CN1CCN(Cc2cc(-c3ccc4[nH]ccc4c3)ccc2F)C(c2cccnc2)C1` (centres unmarked) [Example 10] the figure was 13.8 nM; with `CN1CCN(Cc2cc(-c3ccc4[nH]c(=O)oc4c3)co2)[C@H](c2ccc(F)cc2)C1` [Example 11], 16.2 nM.
In turn, `CN1CCN(Cc2cc(-c3ccc4[nH]ccc4c3)ccc2F)C(c2ccccn2)C1` (centres unmarked) [Example 13] yielded an inhibition constant (Ki) of 3.3 nM. This Ki lies about 4.9-fold lower than the previous one.
As to `CN1CCN(Cc2ccc(-c3ccc4[nH]c(=O)oc4c3)o2)[C@@H](c2ccc(F)cc2)C1` [Example 14], the Ki was 1.4 nM.
Under `CN1CCN(Cc2cc(-c3ccc4[nH]ccc4c3)ccc2F)C(c2ccc(C(F)(F)F)cc2)C1` (centres unmarked) [Example 15] stands 13.8 nM; under `CN(C)CCCN(Cc1ccccc1)Cc1cccc(-c2ccc3[nH]nnc3c2)c1` [Example 17, N-[3-(1H-Benzotriazol-5-yl)-benzyl]-N-benzyl-N′,N′-dimethyl-propane-1,3-diamine], 7.2 nM.
With `CN(C)CCN(Cc1ccccc1)Cc1cccc(-c2ccc3[nH]cnc3c2)c1` [Example 18] the figure was 74.8 nM; with `CN(C)CCCN(Cc1ccccc1)Cc1cccc(-c2ccc3[nH]cnc3c2)c1` [Example 19], 76.5 nM; with `CN(C)CCN(Cc1cccc(-c2ccc3[nH]c(=O)oc3c2)c1)C(=O)c1ccccc1` [Example 24], 0.56 nM.
`CCN1CCCC1CN(Cc1cc(-c2ccc3[nH]c(=O)oc3c2)ccc1F)C(=O)c1ccc(F)cc1` (centres unmarked) [Example 25] showed a Ki of 0.6 nM. The Ki values of the last two compounds are within 1.5-fold of each other.
With `CN1CCC(N(Cc2cccc(-c3ccc4[nH]ccc4c3)c2)C(=O)c2cccs2)CC1` [Example 28], the Ki is 0.7 nM.
With `CN1CCC(N(Cc2cc(-c3ccc4[nH]ccc4c3)ccc2F)C(=O)c2cccs2)CC1` [Example 29] the figure was 0.7 nM.
With `CN(C)CCN(Cc1cccc(-c2ccc3[nH]c(=O)oc3c2)c1)C(=O)c1ccc(Cl)cc1` [Example 30] the figure was 0.77 nM.
As for `CCN1CCC[C@@H]1CN(Cc1cc(-c2ccc3[nH]c(=O)oc3c2)ccc1F)C(=O)c1ccc(F)cc1` [Example 31], the Ki came to 0.92 nM.
Compound `CN(C)CCN(Cc1cccc(-c2ccc3[nH]c(=O)sc3c2)c1)C(=O)c1ccccc1` [Example 32] displayed a Ki of 1.1 nM.
For `CN(C)CCN(Cc1cc(-c2ccc3[nH]ccc3c2)ccc1F)C(=O)c1cccs1` [Example 33], the Ki came out at 1.19 nM.
With `CN(C)CCN(Cc1cc(-c2ccc3[nH]cc(C#N)c3c2)ccc1F)C(=O)c1ccc(F)cc1` [Example 35] the figure was 2.8 nM; with `CN(C)CCCN(Cc1cccc(-c2ccc3[nH]c(=O)sc3c2)c1)C(=O)c1ccccc1` [Example 36], 4.1 nM.
With `CN(C)CCN(Cc1cccc(-c2ccc3[nH]c(=O)sc3c2)c1)C(=O)c1ccc(Cl)cc1` [Example 37] the figure was 4.1 nM; with `O=C(c1ccc(F)cc1)N(Cc1cc(-c2ccc3[nH]ccc3c2)ccc1F)CC12CCN(CC1)CC2` [Example 38], 14.4 nM.
With `O=C(c1ccc(F)cc1)N(CCN1CCCC1)Cc1cncc(-c2ccc3[nH]ccc3c2)c1` [Example 39] the figure was 1.1 nM.
With `CN1CCC(N(Cc2ccc(F)c(-c3ccc4[nH]ccc4c3)c2)C(=O)c2ccc(F)cc2)CC1` [Example 40], the affinity, expressed as Ki, was 0.58 nM.
With `O=c1[nH]c2ccc(-c3ccc(F)c(CN4CCNCC4c4cccs4)c3)cc2o1` (centres unmarked) [Example 43] the figure was 0.6 nM; with `Fc1ccc([C@H]2CNCCN2Cc2cc(-c3ccc4[nH]nnc4c3)ccc2F)cc1` [Example 45], 0.99 nM; with `CN(C)CCN(Cc1ccc(F)cc1)Cc1cncc(-c2ccc3[nH]c(=O)oc3c2)c1` [Example 48], 0.6 nM.
In turn, `CN(C)CCN(Cc1ccc(F)cc1)Cc1cncc(-c2ccc3[nH]ncc3c2)c1` [Example 49] showed a Ki of 0.4 nM.
In the case of `CN(C)CCN(Cc1ccc(F)cc1)Cc1cc(-c2ccc3[nH]c(=O)oc3c2)co1` [Example 50], the affinity, expressed as Ki, was 2.5 nM. Against the preceding compound, the Ki is about 6.2-fold higher.
Under `N#Cc1c[nH]c2ccc(-c3ccc(F)c(CN4CCNC[C@@H]4c4ccc(F)cc4)c3)cc12` [Example 51] stands 9.2 nM; under `CN1CCN(Cc2cc(-c3ccc4[nH]ccc4n3)ccc2F)[C@@H](c2ccc(F)cc2)C1` [Example 52], 3.1 nM.
With `CCN1CCC[C@H]1CN(Cc1cc(-c2ccc3[nH]nnc3c2)ccc1F)C(=O)c1ccc(F)cc1` [Example 53, N-[5-(1H-Benzotriazol-5-yl)-2-fluoro-benzyl]-N-(1-ethyl-pyrrolidin-2S-ylmethyl)-4-fluoro-benzamide] the figure was 2.13 nM.
With `O=C(c1ccc(F)cc1)N(CCN1CCCC1)Cc1cccc(-c2ccc3[nH]nnc3c2)c1` [Example 54] the figure was 0.9 nM.
With `O=C(c1ccc(F)cc1)N(CCN1CCCC1)Cc1cc(-c2ccc3[nH]ncc3c2)ccc1F` [Example 55], the affinity, expressed as Ki, was 0.31 nM.
Under `O=C(c1cccs1)N(CCN1CCCC1)Cc1cc(-c2ccc3[nH]nnc3c2)ccc1F` [Example 56] stands 6.51 nM.
Under `O=C(c1ccc(F)cc1F)N(CCN1CCCC1)Cc1cc(-c2ccc3[nH]nnc3c2)ccc1F` [Example 57] stands 0.71 nM; under `CN1C2CCC1CC(N(Cc1cc(-c3ccc4[nH]ncc4c3)ccc1F)C(=O)c1ccc(F)cc1)C2` (centres unmarked) [Example 58], 1.23 nM.
In turn, `CN1CCC(N(Cc2cc(-c3ccc4[nH]c(=O)oc4c3)ccc2F)C(=O)c2ccc(F)cc2)CC1` [Example 59] gave a Ki of 0.89 nM. This Ki and that of the compound before are within 1.5-fold of each other.
As for `CN(C)CCN(Cc1cc(-c2ccc3c(c2)CCN3)ccc1F)C(=O)c1ccc(F)cc1` [Example 60], the Ki worked out at 1.13 nM.
With `CN1CCCC(N(Cc2cc(-c3ccc4[nH]ncc4c3)ccc2F)C(=O)c2ccc(F)cc2)C1` (centres unmarked) [Example 61] the figure was 0.7 nM; with `CN1CC[C@@H](N(Cc2cc(-c3ccc4[nH]ncc4c3)ccc2F)C(=O)c2ccc(F)cc2)C1` [Example 62], 0.75 nM; with `CN1CC[C@H](N(Cc2cc(-c3ccc4[nH]ncc4c3)ccc2F)C(=O)c2ccc(F)cc2)C1` [Example 63], 0.58 nM.
With `CN1CCCC(N(Cc2cc(-c3ccc4[nH]ncc4c3)ccc2F)C(=O)c2ccc(F)cc2)C1` (centres unmarked) [Example 64] the figure was 0.6 nM; with `CN1[C@@H]2CC[C@H]1C[C@H](N(Cc1cc(-c3ccc4[nH]ncc4c3)ccc1F)C(=O)c1ccc(F)cc1)C2` [Example 65], 0.9 nM; with `O=C(c1ccc(F)cc1)N(Cc1cc(-c2ccc3[nH]nnc3c2)ccc1F)C1CCNCC1` [Example 66], 0.67 nM.
With `CC(C)N1CCC(N(Cc2cc(-c3ccc4[nH]nnc4c3)ccc2F)C(=O)c2ccc(F)cc2)CC1` [Example 67, N-[5-(1H-Benzotriazol-5-yl)-2-fluoro-benzyl]-4-fluoro-N-(1-isopropyl-piperidin-4-yl)-benzamide] the figure was 2.16 nM.
With `O=C(c1ccc(F)cc1)N(Cc1cc(-c2ccc3[nH]nnc3c2)ccc1F)C1CCN(C2CC2)CC1` [Example 68, N-[5-(1H-Benzotriazol-5-yl)-2-fluoro-benzyl]-N-(1-cyclopropyl-piperidin-4-yl)-4-fluoro-benzamide], affinity was put at a Ki of 3.14 nM.
With `CN1CCC(N(Cc2cc(-c3ccc4[nH]nnc4c3)ccc2F)C(=O)c2ccc(F)cc2)CC1` [Example 69, N-[5-(1H-Benzotriazol-5-yl)-2-fluoro-benzyl]-N-(1-methyl-piperidin-4-yl)-4-fluoro-benzamide] the figure was 1.35 nM; with `CN1CCC(N(Cc2ccc(F)cc2)Cc2cc(-c3ccc4[nH]ccc4c3)ccc2F)CC1` [Example 70, (4-Fluoro-benzyl)-[2-fluoro-5-(1H-indol-5-yl)-benzyl]-(1-methyl-piperidin-4-yl)-amine], 0.72 nM; with `CN(C)CCN(Cc1ccc(F)cc1)Cc1cc(-c2ccc3[nH]ccc3c2)ccc1F` [Example 72], 2.37 nM.
